Values belong to the compound of their own block, whether it stands above or below them. Residues, ends and D or L forms follow the SMILES beside them. *: point of attachment. StBu = CC(C)(C)S*
What was measured:
[1] = system: Female Rag2−/− mice; conditions: mouse, in vivo, iv
[2] = system: Female Rag2−/− mice; conditions: mouse, in vivo, iv; remark: listed apart in the source
[3] = system: Female Rag2−/− mice; assay: In vivo toxicity: animal survival after intravenous injection; conditions: i.v.; all of the doses tested (0.0125-0.4 mmol/kg)
[4] = system: Female Rag2−/− mice; assay: Assessment of kidney function; format: in vivo; conditions: one week after injection, still within the reference range
[5] = system: mice; conditions: arginine-rich versus nonarginine peptides; cited from earlier work

Compound: CC(=O)N[C@@H](CCCNC(=N)N)C(=O)N[C@@H](CCCNC(=N)N)C(=O)N[C@@H](C)C(=O)N[C@@H](C)C(=O)N[C@@H](CC(N)=O)C(=O)N[C@@H](CSSC(C)(C)C)C(=O)N[C@@H](CCCCN)C(=O)O [R2] (Ac-RRAANC(StBu)K-OH)
liver enzyme levels (AST, ALT, ALP) in blood plasma [1]: no significant differences

WBC counts [2]: significant increase
Compound: RRRRRRAANCK [R6]
liver enzyme levels (AST, ALT, ALP) in blood plasma [1]: no significant differences

ALP levels in blood plasma [1]: increased | WBC counts [2]: significant increase | platelet counts [2]: significant decrease
Compound: RRRRRAANCK [R5]
ALT levels in blood plasma [1]: increased | AST levels in blood plasma [1]: significant increase

Compound: RAANCK [R1]
observable toxicity in animals [3]: did not exhibit any observable toxicity | liver enzyme levels (AST, ALT, ALP) in blood plasma [1]: no significant differences

Compound: RRRRAANCK [R4]
creatinine levels in urine ([4]; 0.5 mmol/kg i.v.): observable increase | total protein levels in urine ([4]; 0.5 mmol/kg i.v.): observable increase | AST levels in blood plasma [1]: significant increase | WBC counts [2]: significant increase | platelet counts [2]: significant decrease

Compound: NCCCC(=O)O [GABA]
survival of mice exposed to the peptide [5]: mice survived

Compound: ACSSSPSKHCG [TD]
survival of mice exposed to the peptide [5]: mice survived

Compound: CC(=O)N[C@@H](CCCNC(=N)N)C(=O)N[C@@H](CCCNC(=N)N)C(=O)N[C@@H](CCCNC(=N)N)C(=O)N[C@@H](C)C(=O)N[C@@H](C)C(=O)N[C@@H](CC(N)=O)C(=O)N[C@@H](CSSC(C)(C)C)C(=O)N[C@@H](CCCCN)C(=O)O [R3] (Ac-RRRAANC(StBu)K-OH)
creatinine levels in urine ([4]; 0.1 mmol/kg i.v.): observable increase | total protein levels in urine ([4]; 0.1 mmol/kg i.v.): observable increase | liver enzyme levels (AST, ALT, ALP) in blood plasma [1]: no significant differences
